# Reference: article PMC9599613 (Biomolecules, 2022)
# Key:
# human recombinant 5-LOX = target: T1, human recombinant 5-LOX (Homo sapiens, UniProt P09917); assay: biochemical
# T1 sequence (P09917 1-674): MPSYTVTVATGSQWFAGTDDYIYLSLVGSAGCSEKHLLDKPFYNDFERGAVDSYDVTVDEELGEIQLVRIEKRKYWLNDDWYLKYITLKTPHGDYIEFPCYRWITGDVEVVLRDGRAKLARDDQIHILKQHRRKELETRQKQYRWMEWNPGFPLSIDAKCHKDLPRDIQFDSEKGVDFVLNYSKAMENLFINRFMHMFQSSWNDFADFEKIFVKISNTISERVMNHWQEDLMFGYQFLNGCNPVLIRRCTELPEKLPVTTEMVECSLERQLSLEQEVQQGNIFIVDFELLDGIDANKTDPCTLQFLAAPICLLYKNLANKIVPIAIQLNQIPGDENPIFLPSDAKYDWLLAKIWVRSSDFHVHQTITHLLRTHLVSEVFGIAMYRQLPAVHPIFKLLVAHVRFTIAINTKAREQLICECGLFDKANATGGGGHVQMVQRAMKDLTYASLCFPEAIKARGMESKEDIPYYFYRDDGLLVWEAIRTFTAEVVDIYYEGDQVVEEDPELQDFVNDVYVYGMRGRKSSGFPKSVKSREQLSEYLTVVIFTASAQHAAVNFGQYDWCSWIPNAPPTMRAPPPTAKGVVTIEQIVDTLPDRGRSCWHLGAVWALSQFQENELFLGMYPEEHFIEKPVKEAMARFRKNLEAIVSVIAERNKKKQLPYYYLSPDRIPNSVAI
# Procedure: The lipoxygenase assay on our test compounds was performed by utilizing human recombinant 5-LOX [65]. […] The enzyme solution with a concentration of 10,000 U/mL was prepared, whereas 80 mM linoleic acid solution was used as a substrate. Solutions were prepared in a phosphate buffer (50 mM) with a pH of 6.3, which was also utilized as the blank. To start, various concentrations of our test samples were dissolved in 0.25 mL of the buffer, to which 0.25 mL enzyme solution was added and incubated at 25 °C for 5 min. Afterward, the substrate solution (0.1 mL) was added to the mixture and shaken well. […] In this assay, the standard drug was montelukast, and using the following formula, the % inhibitions were calculated: % enzyme inhibition=X−X1/X×100 where X = absorbance of the negative control (with no test sample), and X1 = absorbance of the test compound.
# [1] = target: T2, acetylcholinesterase (AChE) (Electrophorus electricus, UniProt O42275); assay: Anticholinesterase assay (Ellman's), AChE inhibition; type: biochemical
# T2 construct: acetylcholinesterase (AChE, obtained from Electrophorus electricus); from tissue
# T2 sequence (O42275 24-633): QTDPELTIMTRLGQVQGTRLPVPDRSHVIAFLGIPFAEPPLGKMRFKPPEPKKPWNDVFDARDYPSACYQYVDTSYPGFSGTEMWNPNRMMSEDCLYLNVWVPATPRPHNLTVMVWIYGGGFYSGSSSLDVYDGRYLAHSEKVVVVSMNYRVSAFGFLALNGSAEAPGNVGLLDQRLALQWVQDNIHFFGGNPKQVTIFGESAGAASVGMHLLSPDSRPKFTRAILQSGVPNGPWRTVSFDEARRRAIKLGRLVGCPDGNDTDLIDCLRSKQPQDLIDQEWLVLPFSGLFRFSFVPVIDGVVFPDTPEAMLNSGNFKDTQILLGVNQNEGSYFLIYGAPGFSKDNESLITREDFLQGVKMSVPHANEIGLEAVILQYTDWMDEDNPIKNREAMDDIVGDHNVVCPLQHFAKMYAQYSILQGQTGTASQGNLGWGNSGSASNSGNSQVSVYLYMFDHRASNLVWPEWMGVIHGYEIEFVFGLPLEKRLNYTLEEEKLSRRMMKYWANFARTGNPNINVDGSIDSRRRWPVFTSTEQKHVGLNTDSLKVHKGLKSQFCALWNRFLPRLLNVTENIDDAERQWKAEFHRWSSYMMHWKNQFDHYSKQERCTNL
# Procedure: This enzyme method relied on the hydrolytic of acetyl cholinethioiodide (ATChI) by acetylcholinesterase and butyrylthiocholine iodide (BTchI) by butyrylcholinesterase. As a result of this breakdown, 5-thio-2-nitrobenoate anions formed. […] The absorption was measured with a spectrophotometer, as per the protocols. […] An amount of 0.1 M phosphate buffer (8.0 ± 0.1 pH) solution was prepared, whose final pH was adjusted by using the KOH solution.
# In this assay, 50 µL enzyme solution and 50 µL DTNB reagent were added to 1 mL test samples in a cuvette and then incubated at 30 °C for 15 min. Afterward, a 50 µL substrate solution was added to the mixture.
# [2] = ABTS free radical scavenging assay
# Procedure: The antioxidant potentials of isolated phytosteroids 1 and 2 were also determined using the ABTS (2,2′-azino-bis(3-ethylbenzothiazoline-6-sulfonic acid)) standard method. […] This created free radicals within the sample. Afterward, the addition of 50% methanol and the ABTS radical cation solution were adjusted to pH 7.4 by dilution with the phosphate buffer (pH 7.4). […] The positive control was ascorbic acid, and the assay was repeated in triplicate. The percent radical scavenging potential of the test compounds was calculated using the standard reported formula.
smiles,measurement,setting,value
"CCC(CCC(C)C1CCC2C3CCC4=CC(=O)CCC4(C)C3CCC12C)C(C)C (stereo not shown) [Compound 2, 17-(5-ethyl-6-methylheptan-2-yl)-10,13-dimethyl-1,2,6,7,8,9,10,11,12,13,14,15,16,17-tetradecahydro-3H-cyclopenta[a]phenanthren-3-one]",IC50,human recombinant 5-LOX; read-out: 5-LOX IC50 (converted),21.1 µM
same,inhibition at 62.5 µg/mL,human recombinant 5-LOX; read-out: % 5-LOX Inhibition,63.47 ± 0.56%
same,inhibition at 125 µg/mL,human recombinant 5-LOX; read-out: % 5-LOX Inhibition,67.74 ± 0.61%
same,inhibition at 250 µg/mL,human recombinant 5-LOX; read-out: % 5-LOX Inhibition,73.67 ± 0.61%
same,inhibition at 500 µg/mL,human recombinant 5-LOX; read-out: % 5-LOX Inhibition,78.76 ± 0.58%
same,inhibition at 1000 µg/mL,human recombinant 5-LOX; read-out: % 5-LOX Inhibition,85 ± 0.3%
same,IC50,[1],35.2 µM
same,AChE inhibition (%),[1]; 62.5 μg/mL,58.12 ± 0.34 %
same,AChE inhibition (%),[1]; 125 μg/mL,63.47 ± 0.49 %
same,AChE inhibition (%),[1]; 250 μg/mL,68.75 ± 0.14 %
same,AChE inhibition (%),[1]; 500 μg/mL,75.59 ± 0.30 %
same,AChE inhibition (%),[1]; 1000 μg/mL,80.85 ± 0.18 %
same,ABTS IC50,[2],185.83 µg/mL
same,Percent ABTS Activity (mean ± SEM),[2]; 62.5 μg/mL,41.34 ± 1.01 %
same,Percent ABTS Activity (mean ± SEM),[2]; 125 μg/mL,46.73 ± 0.78 %
same,Percent ABTS Activity (mean ± SEM),[2]; 250 μg/mL,51.37 ± 1.65 %
same,Percent ABTS Activity (mean ± SEM),[2]; 500 μg/mL,57.85 ± 0.97 %
same,Percent ABTS Activity (mean ± SEM),[2]; 1000 μg/mL,65.17 ± 0.72 %
same,Percent ABTS Activity (mean ± SEM),"[2]; 1000 μg/mL, listed as compound 2",65.17 ± 0.72%
